Results reported in EP0183174A2, “Substituted phenoxy urea, processes for its preparation and herbicide containing it as active ingredient” (KUMIAI CHEMICAL INDUSTRY CO., LTD., priority 1984, dated 1986).

Columns and labels:
Set-up in all cases: key: 5: Withered; 4.5: Herbicidal effect (or phytotoxicity) in a range of 90 to 99%; 4: Herbicidal effect (or phytotoxicity) in a range of 80 to 89%; 3.5: Herbicidal effect (or phytotoxicity) in a range of 70 to 79%; 3: Herbicidal effect (or phytotoxicity) in a range of 60 to 69%; 2.5: Herbicidal effect (or phytotoxicity) in a range of 50 to 59%; 2: Herbicidal effect (or phytotoxicity) in a range of 40 to 49%; 1.5: Herbicidal effect (or phytotoxicity) in a range of 30 to 39%; 1: Herbicidal effect (or phytotoxicity) in a range of 20 to 29%; 0.5: Herbicidal effect (or phytotoxicity) in a range of 1 to 19%; 0: No herbicidal effect (or no phytotoxicity)
smallflower flatsedge = assay: Test Example 1: herbicidal test by water treatment in a paddy field; type: in vivo, Cvperus diffcrmis L.; details: evaluated thirty days after application
Procedure: (§1) Into each porcelain pot having a diameter of 10 cm, paddy soil was filled and puddled, and seeds of barnyardgrass (Echinochloa crus-galli L.), smallflower flatsedge, monochoria and Japanese bulrush were sown, and water was filled in a-depth of 3 cm. One day later, a predetermined amount of the wettable powder prepared in Formulation Example 3 and diluted with water was dropwise applied to the surface of the water (dose of the active ingredient: 4 kg/hectare). Thereafter, they were grown in a green house. Thirty days after the application, the herbicidal effects were evaluated in accordance with the standards as identified in Table 5.

crabgrass = assay: Test Example 4: herbicidal test by upland foliage treatment; type: in vivo, Digitaria sanquinalis L.
Procedure: (§2) Into each plastic pot of 120 cm^2, upland soil was filled, then seeds of barnyardgrass, crabgrass, redroot pigweed and rice flatsedge were sown, and they were grown in a greenhouse until barnyardgrass. reached 3-leaf stage. Each wettable powder prepared from the test compound in accordance with Formulation Example 3 was diluted with water to give the amount of the active ingredient corresponding to 4 kg/hectare, and the diluted solution was uniformly sprayed at an application rate of 1000 liter/hectare from the top of plants by means of a small size spray, when barnyardgrass was in the 3-leaf stage. They were grown in a greenhouse, and twenty days after the application, the herbicidal effects were evaluated in accordance with the standards as identified in Table 5.

rice flatsedge = assay: as above; type: in vivo, Cy^perus iria L.
Procedure: as §2

[1] = tested on: barnyardgrass (Echinochloa crus-galli L.); assay: Test Example 1: herbicidal test by water treatment in a paddy field; type: in vivo; details: evaluated thirty days after application
Procedure: as §1

redroot pigweed = assay: Test Example 3: herbicidal test by upland soil treatment; type: in vivo, Amaranthus retroflexus L.; details: evaluated twenty days after application
Text: Into each plastic pot of 600 cm^2, upland soil was filled, then seeds of barnyardgrass, crabgrass, green foxtail, redroot pigweed, rice flatsedge, rice, wheat, maize, soybean, cotton and sugar beet were sown, and they were covered with soil. A predetermined amount of the wettable powder prepared from the test compound in accordance with Formulation Example 3 and diluted with water, was uniformly applied to the surface of the soil at an application rate of 1000 liter/hectare by means of a small size spray. They were grown in a greenhouse, and twenty days after the application, the herbicidal effects and phytotoxicity were evaluated in accordance with the standards as identified in Table 5.

[2] = dose of the active ingredient 4 kg/hectare, wettable powder applied to water surface one day after sowing
[3] = active ingredient 4 kg/hectare, foliage spray 1000 liter/hectare at 3-leaf stage of barnyardgrass, twenty days after application
[4] = water treatment in paddy field pot, dose of active ingredient 4 kg/hectare
[5] = upland foliage treatment, 4 kg/hectare active ingredient, sprayed at 1000 liter/hectare at barnyardgrass 3-leaf stage, evaluated twenty days after application

CN(C)C(=O)NOc1cc(Cl)ccc1Cl [Compound No. 1, 3-(2,5-Dichlorophenoxy)-1,1-dimethyl urea]
Herbicidal effects Small flower flatsedge (smallflower flatsedge; [2]): 5 | Herbicidal effects Crabgrass (crabgrass; [3]): 4 (Herbicidal effect (or phytotoxicity) in a range of 80 to 89%) | Herbicidal effects Rice flatsedge (rice flatsedge; [3]): 5 | Herbicidal effects Barnyard grass [1, 2]: 5 | Herbicidal effects Redroot pigweed (redroot pigweed; Dose 1 kg/HA): 5 | Herbicidal effects Redroot pigweed (redroot pigweed; Dose 4 kg/HA): 5

CC(C)N(C)C(=O)NOc1cc(Cl)cc(Cl)c1 [Compound No. 186, 3-(3,5-Dichlorophenoxy)-1-isopropyl-1-methyl urea trichloroacetate]
Herbicidal effects Small flower flatsedge (smallflower flatsedge; [4]): 5 | Herbicidal effects Crabgrass (crabgrass; [3]): 5 | Herbicidal effects Rice flatsedge (rice flatsedge; [3]): 4 (Herbicidal effect (or phytotoxicity) in a range of 80 to 89%) | Herbicidal effects Barnyard grass [1, 4]: 5 | Herbicidal effects Redroot pigweed (redroot pigweed; Dose 1 kg/HA): 5 | Herbicidal effects Redroot pigweed (redroot pigweed; Dose 4 kg/HA): 5

CON(C)C(=O)NOc1cc(Cl)ccc1Cl [Compound No. 242, 3-(2,5-Dichlorophenoxy)-1-methoxy-1-methyl urea]
Herbicidal effects Small flower flatsedge (smallflower flatsedge; [4]): 5 | Herbicidal effects Crabgrass (crabgrass; [5]): 5 | Herbicidal effects Rice flatsedge (rice flatsedge; [5]): 5 | Herbicidal effects Barnyard grass [1, 4]: 5 | Herbicidal effects Redroot pigweed (redroot pigweed; Dose 1 kg/HA): 5 | Herbicidal effects Redroot pigweed (redroot pigweed; Dose 4 kg/HA): 5

COCCNC(=O)NOc1cc(Cl)ccc1Cl [Compound No. 243]
Herbicidal effects Small flower flatsedge (smallflower flatsedge; [4]): 5 | Herbicidal effects Crabgrass (crabgrass; [5]): 4 (Herbicidal effect (or phytotoxicity) in a range of 80 to 89%) | Herbicidal effects Rice flatsedge (rice flatsedge; [5]): 5 | Herbicidal effects Barnyard grass [1, 4]: 5 | Herbicidal effects Redroot pigweed (redroot pigweed; Dose 1 kg/HA): 5 | Herbicidal effects Redroot pigweed (redroot pigweed; Dose 4 kg/HA): 5
